Molecular target: T1, 5-HT2C receptor (Homo sapiens, UniProt P28335)
T1 construct: β-galactosidase enzyme-complementation fragment (ProLink-type donor); host or cells: U2OS
Assay: Functional activity: beta-arrestin2 recruitment to the 5-HT2C receptor in U2OS_HTR2C_β-Arrestin cells (DiscoverX)
Type: cell-based
Details: for EC50: U2OS_HTR2C_β-Arrestin cells, 1.5 h incubation, chemiluminescent β-galactosidase complementation readout, read-out: Potency (EC50) in functional assay; for Emax: relative efficacy: response as percentage of response to 10 μM 5-HT or maximal effect induced by 5-HT (defined as 100%)
Experimental: The functional activity of compounds of formula I was assayed by incubation with U2OS_HTR2C_β-Arrestin cells (DiscoverX, 93-0289C3) to induce beta-arrestin2 recruitment to the 5-HT2C receptor. The agonist-induced recruitment and proximity of the receptor and beta-arrestin2 leads to complementation and formation of active β-galactosidase. The enzyme complementation results in enzyme activity, which is measured following the termination of the agonist incubation using DiscoveRx's detection reagent, which contains a chemiluminescent substrate which produces a high intensity signal. Cells were plated and a medium-change to a 1% serum containing medium was performed 24 h later. The next day, test compounds were added and incubated for 1.5 h before addition of detection reagent.
The response produced was measured and compared with the response produced by 10 [mu]M 5-HT or the maximal effect induced by 5-HT (defined as 100%) to which it was expressed as a percentage response (relative efficacy). Dose response curves were constructed using Graphpad Prism (Graph Software Inc.) or using in house adapted software using a 4 parameter dose response model with variable slope (fit=(Bottom+(Top−Bottom)/(1+10^((Log EC50−x)*HillSlope))res=(y−fit)). Results are compiled in the table below.

T1 sequence (P28335 33-458): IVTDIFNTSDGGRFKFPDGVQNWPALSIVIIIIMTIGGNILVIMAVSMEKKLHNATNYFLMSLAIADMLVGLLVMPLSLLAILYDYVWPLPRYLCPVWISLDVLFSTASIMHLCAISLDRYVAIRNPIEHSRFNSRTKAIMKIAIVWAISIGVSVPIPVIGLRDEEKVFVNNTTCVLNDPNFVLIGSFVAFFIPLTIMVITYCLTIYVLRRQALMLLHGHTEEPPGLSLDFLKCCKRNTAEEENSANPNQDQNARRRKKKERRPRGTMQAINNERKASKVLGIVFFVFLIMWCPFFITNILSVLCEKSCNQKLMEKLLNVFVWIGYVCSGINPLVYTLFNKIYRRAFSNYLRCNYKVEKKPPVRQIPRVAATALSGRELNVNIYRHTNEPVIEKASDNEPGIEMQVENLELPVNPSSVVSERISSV
T1 sequence (P32121 whole entry partner, the tested form may be a part): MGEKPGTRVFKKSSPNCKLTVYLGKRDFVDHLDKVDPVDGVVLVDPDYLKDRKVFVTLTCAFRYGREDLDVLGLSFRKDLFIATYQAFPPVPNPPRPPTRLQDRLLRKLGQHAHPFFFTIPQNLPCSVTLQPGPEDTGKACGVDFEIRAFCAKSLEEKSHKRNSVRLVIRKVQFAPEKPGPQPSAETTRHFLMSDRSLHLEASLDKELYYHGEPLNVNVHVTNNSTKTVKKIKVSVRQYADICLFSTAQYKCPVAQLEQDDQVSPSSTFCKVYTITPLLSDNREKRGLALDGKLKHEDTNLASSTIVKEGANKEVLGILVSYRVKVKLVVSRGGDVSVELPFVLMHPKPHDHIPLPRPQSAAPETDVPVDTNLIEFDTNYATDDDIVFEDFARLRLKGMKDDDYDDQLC

Compound `CC1CNCc2cccc3c2N1CCC31CCC1` (stereo not drawn) [Example 56, 4-Methyl-1,2,3,4,6,7-hexahydrospiro[[1,4]diazepino[6,7,1-ij]quinoline-8,1′-cyclobutane]] has an EC50 of under 20 nM and an Emax of 124%.
In the case of `Fc1ccc2c3c1N1CCCC1CN3CCNC2` (stereo not drawn) [Example 57, 1-Fluoro-5,6,7,9,9a,10,11,12-octahydro-4H-[1,4]diazepino[1,7,6-de]pyrrolo[1,2-a]quinoxaline, trifluoroacetic acid], the EC50 is reported as 200 to 1000 nM and the Emax is reported as 35%.
For `Cc1ccc2c3c1N1CCCC1CN3CCNC2` (stereo not drawn) [Example 59, 1-Methyl-5,6,7,9,9a,10,11,12-octahydro-4H-[1,4]diazepino[1,7,6-de]pyrrolo[1,2-a]quinoxaline, trifluoroacetic acid], the EC50 was 20 to 200 nM and the Emax was 51%.
`Cc1ccc2c3c1CNCCN3CCC21CCC1` [Example 66, 11-Methyl-1,2,3,4,6,7-hexahydrospiro[[1,4]diazepino[6,7,1-ij]quinoline-8,1′-cyclobutane], 2,2,2-trifluoroacetic acid] showed an EC50 of 200 to 1000 nM and an Emax of 53%.
`Cc1ccc2c3c1C1(CCC1)CCN3CCNC2` [Example 67, 9-Methyl-1,2,3,4,6,7-hexahydrospiro[[1,4]diazepino[6,7,1-ij]quinoline-8,1′-cyclobutane], trifluoroacetic acid] was tested, and the EC50 was under 20 nM and the Emax was 116%.
For `c1cc2c3c(c1)N1CC4CC4C1CN3CCNC2` (stereo not drawn) [Example 68, 4,5,6,7,9,9a,9b,10,10a,11-Decahydrocyclopropa[3,4]pyrrolo[1,2-a][1,4]diazepino[1,7,6-de]quinoxaline], the EC50 was 20 to 200 nM and the Emax was 76%.
With `CCN1CCN2CCNCc3cccc1c32` [Example 69, 1-Ethyl-2,3,5,6,7,8-hexahydro-1H-[1,4]diazepino[1,7,6-de]quinoxaline] the EC50 was 200 to 1000 nM and the Emax was 54%.
Compound `CCCN1CCN2CCNCc3cccc1c32` [Example 70, 1-Propyl-2,3,5,6,7,8-hexahydro-1H-[1,4]diazepino[1,7,6-de]quinoxaline] has an EC50 of 20 to 200 nM and an Emax of 63%.
In the case of `Cc1cc2c3c(c1)C1(CCC1)CCN3CCNC2` [Example 76, 10-Methyl-1,2,3,4,6,7-hexahydrospiro[[1,4]diazepino[6,7,1-ij]quinoline-8,1′-cyclobutane], trifluoroacetic acid], the EC50 is reported as under 20 nM and the Emax is reported as 98%.

From patent US10118926B2, “Tricyclic quinoline and quinoxaline derivatives” (AbbVie Deutschland GmbH & Co. KG, priority 2012, dated 2018)
